Measured values reported in article PMC8298633, “Cannabis constituents interact at the drug efflux pump BCRP to markedly increase plasma cannabidiolic acid concentrations” (Scientific Reports, 2021).
Entries after “also recorded” stand apart in the source; their conditions may differ.

Key:
[1] = Pharmacokinetic study: plasma cannabinoids after single oral gavage of full-spectrum cannabis extract or individual cannabinoid; conditions: for Detection in plasma following oral administration of the full-spectrum extract / tmax / AUC / t1/2 / Cmax / Total plasma exposure in full-spectrum extract relative to individual compound, fold lower: mouse plasma; for Detection in plasma following oral administration of the full-spectrum extract: single oral dose of extract; for Total plasma exposure in full-spectrum extract relative to individual compound, fold lower: equivalent doses
Description: Drugs were administered by oral gavage in a volume of 5 mL/kg. Wildtype male and female mice (postnatal day 21–28, P21-28) received a single oral gavage of either the full-spectrum cannabis extract or an individual cannabinoid. Cannabinoid doses within the full-spectrum extract or as an individual cannabinoid were as follows in mg/kg: CBDA and Δ^9-THCA, 50; CBD, 25; Δ^9-THC, 15; CBC, 9; CBDVA and CBGA, 7; CBN, 2.5; CBG, 1.5; CBDV and Δ^9-THCV, < 1 (Fig. 1a). At selected time points (15–240 min), mice were anesthetized with isoflurane and whole blood was collected by cardiac puncture. Plasma was isolated by centrifugation (9000 g for 10 min, 4 °C) and stored at − 80 °C until assayed.
Concentrations of cannabinoids in plasma samples were quantified as described previously, [24], [58]. […] The organic layer was isolated by centrifugation (4000 g for 10 min) and evaporated to dryness with N2. Samples were reconstituted in acetonitrile and 0.1% formic acid in water (1:3.3, v/v) for supported-liquid extraction (SLE) with methyl tert-butyl ether (MTBE) using Biotage Isolute SLE+ columns (Uppsala, SWE). […] Quantification of cannabinoids was achieved by comparing samples to standards prepared with known amounts of drug.
Plasma concentrations at each time point were averaged and pharmacokinetic parameters were calculated by noncompartmental analysis. Elimination rate constants were determined by linear regression of the terminal component of the concentration–time curve using GraphPad Prism 8.2 (La Jolla, USA). The log-linear trapezoidal method was used to calculated total drug exposure (area under concentration–time curve) using equations described previously.

[2] = Bidirectional transwell transport assay, wildtype MDCK cell monolayers; conditions: dog, MDCK
Description: (§1) We first aimed to determine whether the cannabinoids found in the full-spectrum cannabis extract were substrates of P-glycoprotein and BCRP by using MDCK cells expressing human P-glycoprotein or BCRP in vitro. Transwell assays were conducted to assess bidirectional transport of the cannabinoids detected in plasma following administration of the full-spectrum cannabis extract (CBD, CBDA, CBDVA, CBGA, Δ^9-THC and Δ^9-THCA), including the respective neutral compounds (CBDV and CBG) across wildtype, BCRP and P-glycoprotein MDCK cell monolayers. […] BCRP and P-glycoprotein preferentially transport substrates in the B > A direction.
(§2) Media in the donor chamber was then replaced with that containing 10 µM of an individual cannabinoid in the presence of either vehicle or inhibitor and returned to 37 °C. Aliquots (25 or 50 µL) were removed from the accepter chamber at 60, 120, 180 and 240 min.
(§3) Cannabinoids were analyzed as described above.

[3] = test system: wildtype MDCK cells; experiment: as above; conditions: wildtype MDCK cells, 10 µM cannabinoid; for P (A > B): apical to basolateral
Description: as §1, §2, §3

[4] = molecular target: T1, BCRP (Homo sapiens, UniProt Q9UNQ0); experiment: Bidirectional transwell substrate assay, MDCK cells expressing BCRP (with or without elacridar); conditions: for P (A > B): apical to basolateral; for P (B > A): basolateral to apical; for BCRP substrate status: human BCRP MDCK cells vs wildtype, with elacridar control; for efflux ratio at 240 min, 10 µM: human, r (transport efflux ratio)
T1 sequence (Q9UNQ0 1-655): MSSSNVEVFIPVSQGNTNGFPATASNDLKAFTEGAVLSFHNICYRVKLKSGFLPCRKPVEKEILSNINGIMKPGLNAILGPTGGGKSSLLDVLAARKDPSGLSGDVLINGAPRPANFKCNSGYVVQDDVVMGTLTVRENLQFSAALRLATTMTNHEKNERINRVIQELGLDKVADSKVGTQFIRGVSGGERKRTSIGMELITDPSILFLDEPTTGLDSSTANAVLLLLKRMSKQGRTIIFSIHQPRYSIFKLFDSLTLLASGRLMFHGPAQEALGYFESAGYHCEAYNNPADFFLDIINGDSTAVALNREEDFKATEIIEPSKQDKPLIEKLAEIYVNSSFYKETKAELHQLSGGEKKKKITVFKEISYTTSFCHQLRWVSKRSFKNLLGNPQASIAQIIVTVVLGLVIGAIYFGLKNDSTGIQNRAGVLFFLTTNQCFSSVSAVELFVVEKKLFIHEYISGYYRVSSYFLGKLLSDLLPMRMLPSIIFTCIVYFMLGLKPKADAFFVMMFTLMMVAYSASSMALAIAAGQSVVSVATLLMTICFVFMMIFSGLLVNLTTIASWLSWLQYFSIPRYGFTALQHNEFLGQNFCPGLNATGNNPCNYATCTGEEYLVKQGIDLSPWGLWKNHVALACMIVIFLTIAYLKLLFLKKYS
Description: as §1, §2, §3

[5] = molecular target: P-glycoprotein (Homo sapiens, UniProt P08183); experiment: Bidirectional transwell substrate assay, MDCK cells expressing P-glycoprotein; conditions: for P (A > B) / P (B > A) / efflux ratio at 240 min, 10 µM / r (transport efflux ratio): P-glycoprotein MDCK cells, 10 µM cannabinoid; for P (A > B): apical to basolateral; for P (B > A): basolateral to apical; for P-glycoprotein substrate status: human P-glycoprotein MDCK cells vs wildtype; for efflux ratio at 240 min, 10 µM: human, MDCK-MDR1, r (transport efflux ratio); for efflux ratio at 240 min, 10 µM / r (transport efflux ratio): substrate threshold 2.5
Sequence of P-glycoprotein (P08183 whole entry): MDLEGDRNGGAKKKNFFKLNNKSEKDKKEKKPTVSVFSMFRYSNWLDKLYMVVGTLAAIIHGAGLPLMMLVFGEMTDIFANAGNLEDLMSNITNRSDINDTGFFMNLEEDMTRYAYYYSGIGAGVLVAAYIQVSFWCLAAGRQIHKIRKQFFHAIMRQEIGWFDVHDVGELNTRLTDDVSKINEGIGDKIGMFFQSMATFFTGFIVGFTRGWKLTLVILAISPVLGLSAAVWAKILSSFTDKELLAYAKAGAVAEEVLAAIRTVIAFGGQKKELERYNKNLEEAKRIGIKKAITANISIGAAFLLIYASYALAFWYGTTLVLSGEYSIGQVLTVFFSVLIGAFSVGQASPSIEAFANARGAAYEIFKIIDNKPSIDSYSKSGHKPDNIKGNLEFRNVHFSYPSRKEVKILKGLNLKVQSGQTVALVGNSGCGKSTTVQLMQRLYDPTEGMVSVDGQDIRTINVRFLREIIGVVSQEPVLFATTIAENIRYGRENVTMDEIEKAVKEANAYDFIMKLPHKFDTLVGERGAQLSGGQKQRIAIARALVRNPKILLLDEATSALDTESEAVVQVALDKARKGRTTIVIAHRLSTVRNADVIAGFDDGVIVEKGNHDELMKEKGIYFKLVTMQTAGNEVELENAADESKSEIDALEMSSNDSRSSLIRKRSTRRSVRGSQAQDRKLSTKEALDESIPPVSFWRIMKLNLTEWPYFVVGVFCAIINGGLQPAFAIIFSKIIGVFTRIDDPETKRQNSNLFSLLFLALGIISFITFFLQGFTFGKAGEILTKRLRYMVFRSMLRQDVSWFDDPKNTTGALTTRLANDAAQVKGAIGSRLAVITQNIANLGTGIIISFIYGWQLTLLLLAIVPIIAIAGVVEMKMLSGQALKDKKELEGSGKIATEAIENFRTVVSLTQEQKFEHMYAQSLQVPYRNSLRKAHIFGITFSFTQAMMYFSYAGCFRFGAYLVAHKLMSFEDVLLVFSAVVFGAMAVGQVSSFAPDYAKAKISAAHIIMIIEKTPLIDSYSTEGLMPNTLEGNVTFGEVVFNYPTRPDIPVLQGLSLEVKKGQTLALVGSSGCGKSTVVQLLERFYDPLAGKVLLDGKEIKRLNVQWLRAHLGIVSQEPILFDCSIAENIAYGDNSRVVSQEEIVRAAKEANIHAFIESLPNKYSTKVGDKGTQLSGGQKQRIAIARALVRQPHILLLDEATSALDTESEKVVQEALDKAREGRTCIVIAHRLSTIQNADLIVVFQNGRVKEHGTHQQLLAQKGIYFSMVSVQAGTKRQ
Description: as §1, §2, §3

[6] = molecular target: T1, BCRP; experiment: Inhibition of BCRP-mediated transport of prazosin (transwell, BCRP MDCK cells)
[7] = molecular target: T1, BCRP; experiment: Inhibition of BCRP-mediated transport of CBDA by cannabinoids (transwell, BCRP MDCK cells); conditions: BCRP MDCK cells
Description: Cannabinoids were tested at 10 µM. […] Data are expressed as means ± SEM, with n = 4 per time point. […] Schematic created using BioRender.com.
as §3

[8] = BCRP MDCK cells, 10 µM cannabinoid
[9] = BCRP MDCK cells, 10 µM cannabinoid, substrate threshold 1.5
[10] = oral, administered as individual cannabinoid, doses mg/kg: CBD 25, CBDA 50, CBDVA 7, CBGA 7, THC 15, THCA 50
[11] = oral, administered as individual cannabinoid, doses mg/kg: CBD 25, CBDA 50, CBDVA 7, THC 15, THCA 50
[12] = oral, administered in full-spectrum extract, doses mg/kg: CBD 25, CBDA 50, CBDVA 7, CBGA 7, THC 15, THCA 50

| Compound | Detection in plasma following oral administration of the full-spectrum extract [1] | Papp B→A at 240 min, 10 µM [2] [×10⁻⁶ cm/s] | P (A > B) [3] | P (A > B) [4, 8] | P (B > A) [4, 8] | BCRP substrate status [4] | P (A > B) [5] | P (B > A) [5] | P-glycoprotein substrate status [5] | Total plasma exposure in full-spectrum extract relative to individual compound, fold lower ([1]; oral) | further results |
| --- | --- | --- | --- | --- | --- | --- | --- | --- | --- | --- | --- |
| CCCCCc1cc(O)c2c(c1)OC(C)(CCC=C(C)C)C=C2 (stereo not shown) [CBC] | not detected | – | – | – | – | – | – | – | – | – | – |
| C=C(C)[C@@H]1CCC(C)=C[C@H]1c1c(O)cc(CCC)cc1O [CBDV, cannabidivarin] | not detected | 440 ± 50 | 43 ± 5 × 10^−5 cm/s | 63 ± 14 × 10^−5 cm/s | 90 ± 9 × 10^−5 cm/s | not considered a substrate of BCRP; also recorded: not substrates of either BCRP or P-glycoprotein | 30 ± 8 × 10^−5 cm/s | 34 ± 3 × 10^−5 cm/s | not substrates of either BCRP or P-glycoprotein | – | efflux ratio at 240 min, 10 µM [2]: 1 ± 0.2; efflux ratio at 240 min, 10 µM [4, 9]: 1.4 ± 0.2; efflux ratio at 240 min, 10 µM [5]: 1.1 ± 0.3 |
| C=C(C)[C@@H]1CCC(C)=C[C@H]1c1c(O)cc(CCC)c(C(=O)O)c1O [CBDVA, cannabidivarinic acid] | detected | – | 22 ± 3 × 10^−5 cm/s | 24 ± 9 × 10^−5 cm/s | 47 ± 6 × 10^−5 cm/s | BCRP substrates | 14 ± 4 × 10^−5 cm/s | 22 ± 2 × 10^−5 cm/s | not P-glycoprotein substrates | 2–4 × | r (transport efflux ratio) [3]: 1.1 ± 0.2; P (B > A) ([3]; basolateral to apical): 25 ± 2 × 10^−5 cm/s; r (transport efflux ratio) [4, 9]: 2.0 ± 0.4; r (transport efflux ratio) [5]: 1.6 ± 0.3; P (A > B) of prazosin in the presence of inhibitor ([6]; 10 µM inhibitor, 1 µM prazosin): 15 ± 3 × 10^−2 cm/s; P (B > A) of prazosin in the presence of inhibitor ([6]; 10 µM inhibitor, 1 µM prazosin): 201 ± 4 × 10^−2 cm/s; Effect on BCRP-mediated transport of CBDA ([7]; 10 µM, compared to vehicle): Neither CBD nor CBDVA affected CBDA transport via BCRP; P (A > B) of CBDA in the presence of inhibitor ([7]; cannabinoids tested at 10 µM): 8 ± 1 × 10^−5 cm/s; P (B > A) of CBDA in the presence of inhibitor ([7]; cannabinoids tested at 10 µM): 63 ± 4 × 10^−5 cm/s; tmax [1, 10]: 0.25 h; AUC [1, 11]: 7459 µg·min/mL; t1/2 [1, 11]: 2.5 h; Cmax ([1]; oral, administered as individual cannabinoid, doses mg/kg: CBDA 50, CBDVA 7, CBGA 7): 26000 ± 2000 ng/mL; AUC [1, 12]: 3844 µg·min/mL; t1/2 [1, 12]: 2 h; tmax [1, 12]: 1 h; Cmax ([1]; oral, administered in full-spectrum extract, doses mg/kg: CBDA 50, CBDVA 7, CBGA 7): 11000 ± 1000 ng/mL |
| CCCCCc1cc(O)c(C/C=C(\C)CCC=C(C)C)c(O)c1 [CBG, cannabigerol] | not detected | 100 ± 30 | 12 ± 5 × 10^−5 cm/s | 47 ± 9 × 10^−5 cm/s | 53 ± 10 × 10^−5 cm/s | weak substrates of BCRP | 19 ± 5 × 10^−5 cm/s | 14 ± 2 × 10^−5 cm/s | not P-glycoprotein substrates | – | efflux ratio at 240 min, 10 µM [2]: 0.8 ± 0.5; efflux ratio at 240 min, 10 µM [4, 9]: 1.1 ± 0.3; Effect on BCRP-mediated transport of prazosin ([6]; 10 µM, compared to vehicle): not prazosin transport |
| CCCCCc1cc(O)c(C/C=C(\C)CCC=C(C)C)c(O)c1C(=O)O [CBGA, cannabigerolic acid] | detected | 10 ± 10 | – | – | 5 ± 1 × 10^−5 cm/s | not substrates of either BCRP or P-glycoprotein | 5 ± 2 × 10^−5 cm/s | 3 ± 1 × 10^−5 cm/s | not substrates of either BCRP or P-glycoprotein | 2–4 × | efflux ratio at 240 min, 10 µM [5]: 0.7 ± 0.5; AUC ([1]; both, mouse, plasma, po, 7 mg/kg, AUC (does not include terminal phase), administered as individual cannabinoid, CBGA 7 mg/kg): 8670 µg·min/mL; AUC ([1]; both, mouse, plasma, po, AUC, oral, administered in full-spectrum extract, doses mg/kg: CBD 25, CBDA 50, CBDVA 7, CBGA 7, THC 15, THCA 50): 5170 µg·min/mL; Cmax ([1]; both, mouse, plasma, po, Cmax, oral, administered as individual cannabinoid, doses mg/kg: CBDA 50, CBDVA 7, CBGA 7): 48000 ± 2000 ng/mL; Cmax ([1]; both, mouse, plasma, po, Cmax, oral, administered in full-spectrum extract, doses mg/kg: CBDA 50, CBDVA 7, CBGA 7): 12000 ± 1000 ng/mL; half-life ([1]; both, mouse, plasma, po, t1/2, mouse plasma, oral, administered in full-spectrum extract, doses mg/kg: CBD 25, CBDA 50, CBDVA 7, CBGA 7, THC 15, THCA 50): 4.97 h; tmax ([1]; both, mouse, plasma, po, tmax, oral, administered as individual cannabinoid, doses mg/kg: CBD 25, CBDA 50, CBDVA 7, CBGA 7, THC 15, THCA 50): 2 h; tmax ([1]; both, mouse, plasma, po, tmax, oral, administered in full-spectrum extract, doses mg/kg: CBD 25, CBDA 50, CBDVA 7, CBGA 7, THC 15, THCA 50): ≤ 1 h |
| CCCCCc1cc(O)c2c(c1)OC(C)(C)c1ccc(C)cc1-2 [CBN, cannabinol] | not detected | – | – | – | – | – | – | – | – | – | – |
| CCCCCc1cc2c(c(O)c1C(=O)O)C1C=C(C)CCC1C(C)(C)O2 (stereo not shown) [Δ^9-THCA, Δ^9-tetrahydrocannabinolic acid] | detected | – | – | – | 6 ± 2 × 10^−5 cm/s | not substrates of either BCRP or P-glycoprotein | 17 ± 5 × 10^−5 cm/s | 8 ± 3 × 10^−5 cm/s | not substrates of either BCRP or P-glycoprotein | 2–4 × | r (transport efflux ratio) [5]: 0.5 ± 0.4; tmax [1, 10]: 0.5 h; AUC [1, 11]: 173 µg·min/mL; t1/2 [1, 11]: 0.617 h; Cmax ([1]; oral, administered as individual cannabinoid, doses mg/kg: CBD 25, THC 15, THCA 50): 2094 ± 74 ng/mL; AUC [1, 12]: 44 µg·min/mL; t1/2 [1, 12]: 0.767 h; tmax [1, 12]: 0.75 h; Cmax ([1]; oral, administered in full-spectrum extract, doses mg/kg: CBD 25, THC 15, THCA 50): 465 ± 64 ng/mL |
| CCCc1cc(O)c2c(c1)OC(C)(C)[C@@H]1CCC(C)=C[C@@H]21 [Δ^9-THCV, Δ^9-tetrahydrocannabivarin] | not detected | – | – | – | – | – | – | – | – | – | – |
